Data: patent US5006522A, “Condensed diazepinones, processes for preparing them and pharmaceutical compositions containing these compounds” (Karl Thomae GmbH, priority 1988, dated 1991)

Legend:
[1] = molecular target: T1, muscarinic receptors (heart) (Rattus norvegicus, UniProt P10980); experiment: Binding to muscarinic receptors, 3H-NMS displacement, heart; parameters: species or system rat (male Sprague-Dawley); details: for IC50: 0.3 nM 3H-NMS, 30° C., 45 min, pH 7.4, read-out: IC50 receptor binding test, Heart (H); for potency compared with compound D: Table I, receptor binding, same selectivity maintained
T1 construct: The whole heart was cut up with scissors; All the organs were then homogenised in a Potter apparatus; from tissue; host or cells: homogenate of rat whole heart
T1 sequence (P10980 1-466): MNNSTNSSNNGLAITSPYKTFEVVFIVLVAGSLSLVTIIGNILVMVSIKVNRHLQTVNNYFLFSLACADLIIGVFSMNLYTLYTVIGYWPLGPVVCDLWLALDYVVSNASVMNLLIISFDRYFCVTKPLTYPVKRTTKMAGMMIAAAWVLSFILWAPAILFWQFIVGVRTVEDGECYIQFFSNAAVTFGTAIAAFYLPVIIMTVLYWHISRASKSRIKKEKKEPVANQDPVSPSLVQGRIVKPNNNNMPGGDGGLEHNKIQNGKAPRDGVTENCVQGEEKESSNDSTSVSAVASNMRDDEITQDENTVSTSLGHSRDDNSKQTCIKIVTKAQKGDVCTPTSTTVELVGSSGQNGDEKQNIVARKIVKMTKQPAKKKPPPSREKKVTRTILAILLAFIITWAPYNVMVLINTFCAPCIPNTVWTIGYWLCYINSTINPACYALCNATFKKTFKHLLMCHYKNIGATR
Procedure: (§1) The organs were donated by male Sprague-Dawley rats weighing 180-220 g After the heart and submandibular gland and cerebral cortex had been removed, all other steps were carried out in ice-cold Hepes HCl buffer (pH 7.4; 100 millimolar NaCl, 10 millimolar MgCl2). The whole heart was cut up with scissors. All the organs were then homogenised in a Potter apparatus.
(§2) For the binding test the homogenised organs were diluted as follows:
(§3) The homogenised organs were incubated at a given concentration of the radioligand and at a series of concentrations of the non-radioactive test substances in an Eppendorf centrifuge tube at 30° C. Incubation lasted 45 minutes. The radioligand used was 0.3 nanomolar ^3 H-N-methylscopolamine (^3 H-NMS). Incubation was ended by the addition of ice-cold buffer followed by vacuum filtration. The filters were rinsed with cold buffer and their radioactivity was determined. This represents the sum of specific and non-specific binding of ^3 H-NMS. The proportion of non-specific binding was defined as the radioactivity which was bound in the presence of 1 micromolar quinuclidinylbenzylate. Each measurement was taken four times. The IC50 values of the non-labelledtest substances were determined graphically. They represent that concentration of test substance at which the specific binding of ^3 H-NMS to the muscarinic receptors in the various organs was inhibited by 50%.

[2] = molecular target: muscarinic receptors (cerebral cortex); experiment: Binding to muscarinic receptors, 3H-NMS displacement, cerebral cortex; parameters: species or system rat (male Sprague-Dawley); details: for IC50: 0.3 nM 3H-NMS, 30° C., 45 min, pH 7.4, read-out: IC50 receptor binding test, Cortex (C); for Selectivity factor [drawing 25]: head is a drawing, values equal IC50 C / IC50 H
Procedure: as §1, §2, §3

[3] = molecular target: T2, muscarinic receptors (submandibular gland) (Rattus norvegicus, UniProt P08483); experiment: Binding to muscarinic receptors, 3H-NMS displacement, submandibular gland; parameters: species or system rat (male Sprague-Dawley); details: for IC50: 0.3 nM 3H-NMS, 30° C., 45 min, pH 7.4, read-out: IC50 receptor binding test, Submandibular gland (SM); for Selectivity factor [drawing 24]: head is a drawing, values equal IC50 SM / IC50 H
T2 construct: After the heart and submandibular gland and cerebral cortex had been removed; from tissue; host or cells: homogenate of rat submandibular gland
T2 sequence (P08483 whole entry): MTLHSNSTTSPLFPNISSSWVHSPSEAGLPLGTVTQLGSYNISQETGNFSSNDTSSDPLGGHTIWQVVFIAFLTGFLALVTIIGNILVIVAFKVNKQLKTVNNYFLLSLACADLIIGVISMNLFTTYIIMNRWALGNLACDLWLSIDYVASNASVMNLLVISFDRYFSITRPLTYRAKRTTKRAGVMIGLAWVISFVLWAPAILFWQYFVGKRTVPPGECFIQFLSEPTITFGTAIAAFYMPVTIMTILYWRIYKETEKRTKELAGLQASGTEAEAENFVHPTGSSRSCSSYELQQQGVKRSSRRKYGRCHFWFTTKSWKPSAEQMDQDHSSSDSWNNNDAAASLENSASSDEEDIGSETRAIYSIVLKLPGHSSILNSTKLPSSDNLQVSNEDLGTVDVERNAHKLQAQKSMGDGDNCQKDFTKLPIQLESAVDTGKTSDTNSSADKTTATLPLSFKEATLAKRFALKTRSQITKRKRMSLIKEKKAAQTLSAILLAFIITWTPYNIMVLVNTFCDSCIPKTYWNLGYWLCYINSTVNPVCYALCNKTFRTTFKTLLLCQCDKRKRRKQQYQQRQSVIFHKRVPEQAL
Procedure: as §1, §2, §3

M2 = molecular target: T3, M2 (Rattus norvegicus, UniProt P10980); experiment: M1/M2 selectivity in the rat: reduction of vagal bradycardia (M2); assay type: in vivo, rat (male THOM); details: iv, 5 min, i.v., 5 min before right vagus stimulation, read-out: -log ED50, Heart (vagal bradycardia, M2) (converted)
T3 construct: from tissue; host or cells: heart of the living rat (in vivo)
T3 sequence (P10980 1-466): T1 sequence (P10980 1-466)
Procedure: The method used was described by Hammer and Giachetti (Life Sciences 31, 2991-2998 (1982)). 5 minutes after the intravenous injection of increasing doses of the substance, either the right vagus was electrically stimulated (frequency: 25 Hz; pulse width: 2 ms; duration of stimulus: 30s; voltage: supramaximal) or 0.3 mg/kg of McN-A-343 were intravenously injected into male THOM rats. The bradycardia caused by vagus stimulation and the rise in blood pressure caused by McN-A-343 were determined. The dosage of the substances which reduced either the vagal bradycardia (M2) or the rise in blood pressure (M1) by 50% was determined graphically. For the results see Table II.

M1 = molecular target: T4, M1 (Rattus norvegicus, UniProt P08482); experiment: M1/M2 selectivity in the rat: reduction of McN-A-343 induced rise in blood pressure (M1); assay type: in vivo, rat (male THOM); details: iv, 5 min, i.v., 5 min before 0.3 mg/kg McN-A-343 i.v., read-out: -log ED50, Blood pressure (M1) (converted)
T4 construct: from tissue; host or cells: living rat (in vivo; sympathetic ganglia by own knowledge)
T4 sequence (P08482 1-460): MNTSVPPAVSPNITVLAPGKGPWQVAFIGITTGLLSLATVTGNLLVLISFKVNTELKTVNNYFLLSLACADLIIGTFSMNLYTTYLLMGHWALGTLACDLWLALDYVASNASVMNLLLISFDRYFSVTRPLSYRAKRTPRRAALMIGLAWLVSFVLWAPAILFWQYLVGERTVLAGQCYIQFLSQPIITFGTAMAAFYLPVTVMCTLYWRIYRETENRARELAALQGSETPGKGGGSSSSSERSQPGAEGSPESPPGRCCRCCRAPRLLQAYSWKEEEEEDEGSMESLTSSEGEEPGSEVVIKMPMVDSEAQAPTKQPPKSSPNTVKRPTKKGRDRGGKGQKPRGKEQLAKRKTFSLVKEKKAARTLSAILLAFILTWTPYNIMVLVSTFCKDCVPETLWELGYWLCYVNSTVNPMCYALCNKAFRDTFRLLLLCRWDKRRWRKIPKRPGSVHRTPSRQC
Procedure: The dosage of the substances which reduced either the vagal bradycardia (M2) or the rise in blood pressure (M1) by 50% was determined graphically. For the results see Table II.

secretion of saliva = experiment: Salivation-inhibiting effect in the rat (pilocarpine); assay type: in vivo, rat (male THOM); details: iv, urethane anaesthesia, pilocarpine 2 mg/kg s.c., read-out: -log ED50, Salivation inhibition (converted)
Procedure: The secretion of saliva was initiated by subcutaneous administration of 2 mg/kg of pilocarpine. The saliva was absorbed with blotting paper and the surface area covered was measured every 5 minutes by planimetry. The dosage of the substance which reduced the volume of saliva by 50% was determined graphically. For the results see Table II.

[4] = test system: acetylcholine effect on heart rate; experiment: Inhibition of the effect of acetylcholine on heart rate in guinea pigs; assay type: in vivo; details: Cavia porcellus, iv, 5 min; guinea pig, acetylcholine 10 microgram/kg i.v. and i.a., 5 min after substance; read-out: -log ED50, Heart (heart rate) (converted)
Procedure: (§4) 5 minutes after the administration of the test substance, 10 microgram/kg of acetylcholine were simultaneously injected intravenously and intraarterially into anaesthetised guinea pigs. The heart rate was recorded directly by extracorporeal derivation of the ECG, the expiration resistance according to Konzett-Robler and contraction of the exposed bladder. In order to determine the inhibition of the acetylcholine activity on the organs under investigation, dosage/activity curves were recorded and from them -log ED50 values were determined.

[5] = test system: acetylcholine effect on bronchi; experiment: Inhibition of the effect of acetylcholine on the bronchi in guinea pigs; assay type: in vivo; details: Cavia porcellus, iv, 5 min; guinea pig, acetylcholine 10 microgram/kg i.v. and i.a., 5 min after substance; read-out: -log ED50, Bronchi (converted)
Procedure: as §4

[6] = test system: acetylcholine effect on bladder; experiment: Inhibition of the effect of acetylcholine on the bladder in guinea pigs; assay type: in vivo; details: Cavia porcellus, iv, 5 min; guinea pig, acetylcholine 10 microgram/kg i.v. and i.a., 5 min after substance; read-out: -log ED50, Bladder (converted)
Procedure: as §4

histamine-H1 receptor = molecular target: T5, histamine-H1 receptor (Rattus norvegicus, UniProt P31390); experiment: Binding to the histamine-H1 receptor (3H-pyrilamine); details: 2 nM 3H-pyrilamine, ambient temperature, 60 min, whole rat brain without cerebellum
T5 construct: whole rat brains were used without the cerebellum; from tissue; host or cells: membranes of whole rat brain without cerebellum
T5 sequence (P31390 whole entry): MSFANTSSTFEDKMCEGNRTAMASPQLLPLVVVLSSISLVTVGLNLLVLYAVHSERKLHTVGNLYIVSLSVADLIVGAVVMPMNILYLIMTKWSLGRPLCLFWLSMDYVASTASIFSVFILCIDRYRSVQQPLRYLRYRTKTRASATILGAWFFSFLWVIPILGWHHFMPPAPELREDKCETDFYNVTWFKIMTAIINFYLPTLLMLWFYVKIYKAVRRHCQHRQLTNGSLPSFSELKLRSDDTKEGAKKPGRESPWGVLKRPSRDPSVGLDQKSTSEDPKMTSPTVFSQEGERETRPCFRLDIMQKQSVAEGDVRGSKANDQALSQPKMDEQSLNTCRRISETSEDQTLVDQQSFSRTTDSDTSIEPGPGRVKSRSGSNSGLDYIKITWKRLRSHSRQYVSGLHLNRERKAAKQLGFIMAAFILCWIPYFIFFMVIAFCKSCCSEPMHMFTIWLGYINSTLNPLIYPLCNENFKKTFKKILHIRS
Procedure: In these tests, whole rat brains were used without the cerebellum. The tissue was homogenised in a phosphate buffer pH 7.5 according to Sorensen using the Ultra-Turrax. The homogenised material was then washed twice and centrifuged at 50,000×g. The pellet was taken up in a dilution, based on the starting tissue, of 1:100. […] The reactions were also ended by vacuum filtration and the radioactivity of the filters was measured. The non-specific binding was determined using mixtures which contained 10 micromolar triprolidine. The results were evaluated as in the studies of binding to the imipramine receptor.

[7] = Water solubility of the monohydrochloride; assay type: physicochemical

| Structure (SMILES) | IC50 [1] [nM] | potency compared with compound D [1] | IC50 [2] [nM] | Selectivity factor [drawing 25] [2] | IC50 [3] [nM] | Selectivity factor [drawing 24] [3] | ED50 (M2) [µmol/kg] | ED50 (M1) [µmol/kg] | ED50 (secretion of saliva) [µmol/kg] | ED50 [4] [µmol/kg] | ED50 [5] [µmol/kg] | ED50 [6] [µmol/kg] | IC50 (histamine-H1 receptor) [µM] | water solubility (monohydrochloride) [7] |
| --- | --- | --- | --- | --- | --- | --- | --- | --- | --- | --- | --- | --- | --- | --- |
| O=C1Nc2cccnc2N(CCCCCCN2CCCCC2)c2ccccc21 [A, 5,11-dihydro-11-[6-(1-piperidinyl)hexyl]-6H-pyrido[2,3-b][1,4]benzodiazepin-6-one] | 0.6 | considerably higher potency | 4 | 6.7 | 10 | 16.7 | 0.011 | 0.295 | 0.447 | 0.0661 | 0.0851 | 1.29 | – | – |
| CCN(CC)CC1CCCCN1CCCCN1c2ccccc2C(=O)Nc2cccnc21 (stereo not shown) [B, 11-[4-[2-[(diethylamino)methyl]-1-piperidinyl]butyl]-5,11-dihydro-6H-pyrido[2,3-b][1,4]benzodiazepin-6-one] | 2 | considerably higher potency | 20 | 10 | 80 | 40 | 0.0398 | 0.676 | 3.16 | 0.468 | 0.646 | > 10 | 9 | – |
| CCN(CC)CC1CCCCN1CC#CCN1c2ccccc2C(=O)Nc2cccnc21 (stereo not shown) [C, 11-[4-[2-[(diethylamino)methyl]-1-piperidinyl]but-2-ynyl]-5,11-dihydro-6H-pyrido[2,3-b][1,4]benzodiazepin-6-one] | 18 | considerably higher potency | 200 | 11.1 | 700 | 38.9 | 0.0302 | 1.1 | 7.59 | 0.245 | 1.58 | > 2.29 | – | – |
| CCN(CC)CC1CCCCN1CC(=O)N1c2ccccc2C(=O)Nc2cccnc21 (stereo not shown) [D, 11-[[2-[(diethylamino)methyl]-1-piperidinyl]acetyl]-5,11-dihydro-6H-pyrido[2,3-b][1,4]benzodiazepin-6-one, reference compound] | – | – | – | – | – | – | – | – | 10 | – | – | – | – | – |
| Cl.O=C1Nc2ccccc2N(CCCCCCN2CCCCCC2)c2ccccc21 [Example 16, 5,10-Dihydro-5-[6-(hexahydro-1H-1-azepinyl)hexyl]-11H-dibenzo[b,e][1,4]diazepin-11-one hydrochloride] | – | – | – | – | – | – | – | – | – | – | – | – | – | sparingly soluble in water |
| CN1[C@@H]2CC[C@H]1C[C@@H](OC(=O)C(CO)c1ccccc1)C2 (stereo partly shown) [F, atropine, reference compound] | – | – | – | – | – | – | – | – | – | 0.02 | – | – | – | – |
